From patent publication US4224448A, “2'-(5'-Nitrofuryl) substituted quinolines” (priority 1966, dated 1980)
≈ marks a conversion by molar mass, not a printed value. Like-named read-outs stand apart in the source and are kept apart here.

How the values were obtained:
Test in all cases: Minimum inhibitory concentration, conventional tube dilution method
Format in all cases: cell-based
[1] = test system: Candida albicans; settings: fungus, tube dilution, 37 degrees, 24 hours, between 1 and 6 strains, mg/100 cc, decimal comma, read-out: Minimal Inhibitory Concentration, Cand. Alb.
Description: (§1) The activity of some of the new nitrofuryl quinoline derivatives of the present invention is exemplified in Table 1 against a gram-positive (Staph. aureus), a gram-negative (Salmonella) bacterium and a fungus (Candida albicans). Table 1 indicates the minimum inhibitory concentration of the compound under reference in mg/100 cc required in order to inhibit the growth between 1 and 6 strains of each type. The measurements have been carried out by the conventional tube dilution method at 37 degrees after 24 hours.

[2] = test system: Salmonella; settings: read-out: Minimal Inhibitory Concentration, Salm.
Description: as §1

[3] = test system: Staph. aureus; settings: Staphylococcus aureus; gram-positive; tube dilution, 37 degrees, 24 hours; between 1 and 6 strains; mg/100 cc; decimal comma; read-out: Minimal Inhibitory Concentration, Staph. aureus
Description: as §1

[4] = gram-negative, tube dilution, 37 degrees, 24 hours, between 1 and 6 strains, mg/100 cc, decimal comma

Row | Compound | MIC [1] | MIC [2, 4] | MIC [3] | MIC ([2]; 24 h)
1 | Cc1cc(-c2ccc([N+](=O)[O-])o2)c2cc3ccccc3cc2[n+]1[O-] [O CH3 H NF H drawing 13 H] | 50 µg/mL (≈ 156 µM) | > 50 µg/mL | 0.5 to 1 µg/mL (≈ 1.56 to 3.12 µM) | –
2 | O=C(O)c1cc(-c2ccc([N+](=O)[O-])o2)c2ccccc2[n+]1[O-] [O COOH H NF H H H H] | 10 to 25 µg/mL (≈ 33.3 to 83.3 µM) | 50 µg/mL (≈ 167 µM) | 0.5 µg/mL (≈ 1.67 µM) | –
3 | O=[N+]([O-])c1ccc(-c2cc[n+]([O-])c3ccccc23)o1 [O H H NF H H H H] | 0.5 µg/mL (≈ 1.95 µM) | 5 µg/mL (≈ 19.5 µM) | 0.1 to 0.5 µg/mL (≈ 0.39 to 1.95 µM) | –
4 | COc1ccc2c(-c3ccc([N+](=O)[O-])o3)cc[n+]([O-])c2c1 [O H H NF H H OCH3 H, 4-[2'-(5'-nitrofuryl)]-7-methoxy quinoline N-oxide] | 0.5 µg/mL (≈ 1.75 µM) | 5 µg/mL (≈ 17.5 µM) | 0.01 to 0.05 µg/mL (≈ 0.0349 to 0.175 µM) | –
5 | Cc1cc(-c2ccc([N+](=O)[O-])o2)[n+]([O-])c2ccccc12 [O NF H CH3 H H H H] | 2 to 5 µg/mL (≈ 7.4 to 18.5 µM) | 10 µg/mL (≈ 37 µM) | 1 µg/mL (≈ 3.7 µM) | –
6 | CCCc1cc(-c2ccc([N+](=O)[O-])o2)c2ccc(C)cc2[n+]1[O-] [OC3 H7 H NF H H CH3 H] | > 50 µg/mL | – | 1 µg/mL (≈ 3.2 µM) | > 50 µg/mL
7 | O=C(c1cc(-c2ccc([N+](=O)[O-])o2)c2ccccc2n1)N1CCOCC1 [drawing 11 H NF H H H H] | 50 µg/mL (≈ 142 µM) | 25 to 50 µg/mL (≈ 70.8 to 142 µM) | 0.1 to 0.5 µg/mL (≈ 0.283 to 1.42 µM) | –
8 | O=[N+]([O-])c1ccc(-c2cc(CC(O)C(Cl)(Cl)Cl)nc3ccccc23)o1 (stereo not drawn) [drawing 12 H NF H H H H] | > 50 µg/mL | > 50 µg/mL | 0.5 µg/mL (≈ 1.24 µM) | –
